Reference: PMC11206678, “Peptide-Alkoxyamine Drugs: An Innovative Approach to Fight Schistosomiasis: “Digging Their Graves with Their Forks”” (Pathogens, 2024)
Structures can show the parent of a compound that is named as a salt. Square brackets hold non-standard residues; d marks the D form. Peptide text beside a SMILES is read from it. * marks the point of attachment. OBn = c1ccc(CO*)cc1

Legend:
Vero cells = type: cell-based; settings: 48 h
Protocol: A non-cancer line of Vero cells was used to determine the cytotoxicity of the compound against mammalian cells. They were evaluated at a final DMSO concentration of 0.5%. The culture medium was MEM (Dutscher, Bernolsheim, France) supplemented with 10% fetal bovine serum (Fisher Scientific, Illkirch, France), 1X non-essential amino acids (Fisher Scientific, Illkirch, France), 100 U/mL, 100 µg/mL penicillin/streptomycin (Fisher Scientific, Illkirch, France), and 2 mM L-glutamine (Fisher Scientific, Illkirch, France) at 37 °C in a humidified 5% CO2 atmosphere. Vero cells (100 µL of 10^5 cells/mL per well) were plated in 96-well plates for 24 h then treated with 100 µL of compound dilutions (in duplicate) during 48 h. All molecules were tested from 5 nM to 50 µM. Each well was then examined under the microscope to detect any precipitate formation before the supernatant was removed by flicking the plate. A volume of 100 µL of 0.5 mg/mL in MEM from a stock solution at 5 mg/mL of PBS-dissolved MTT (3-(4,5-dimethylthiazol-2-yl)-2,5-diphenyltetrazolium bromide, Sigma Aldrich/Merck, Darmstadt, Germany) was then added to each well [20].
After incubation for 1 h at 37 °C and 5% CO2 the supernatant was removed and 100 µL of DMSO were added. Plates were gently shaken to dissolve formazan crystals resulting from the MTT reduction by living cells and read at 570 nm with the VICTOR Nivo plate reader (Perkin Elmer, Waltham, MA, USA). CC50 values were determined using GraphPad Prism 7 software (San Diego, CA, USA).

[1] = Homolysis kinetics of alkoxyamines by EPR (growth of nitroxide); type: physicochemical; settings: mixture of diastereoisomers; for Homolysis rate constant kd: 0.1 mM alkoxyamine, O2 as alkyl radical scavenger; for Activation energy Ea: by Equation (2) from kd and T, A = 2.4 10^14 s^−1
Protocol: Preparation of alkoxyamines and reference samples. All reagents including anhydrous solvents used for the chemical synthesis were purchased from commercially available sources such as Merck, TCI, and Fluorochem, and were used without further purification. All air and/or water-sensitive reactions were carried out under an argon atmosphere with dry solvents using standard syringe-cannula/septa techniques. Routine monitoring of reactions was performed using Merck Silica gel 60 F254, aluminum-supported TLC plates; spots were visualized using UV light and ethanolic acidic para-anisaldehyde solution or ethanolic phosphomolybdic solution, followed by heating. Purifications by means of column chromatography were performed with Silica gel 60 (230–400 mesh). ^1H, ^13C, and ^19F NMR spectra were obtained in CDCl3, MeOD (with residual H2O), D2O, DMSO-d6, or C6D6 solutions on by using Bruker AC400 (400 MHz) and Bruker AC300 (300 MHz) spectrometers. High-resolution mass spectra (HRMS) have been performed using a SYNAPT G2 HDMS (Waters) mass spectrometer equipped with a pneumatically assisted atmospheric pressure ionization (API) source. The sample was ionized in positive electrospray mode under the following conditions: electrospray voltage: 2.8 kV; port voltage: 20 V; Nebulizing gas flow rate (nitrogen): 100 L/h or in negative electrospray mode under the following conditions: electrospray voltage: −2.27 kV; port voltage: −20 V; Nebulizing gas flow rate (nitrogen): 100 L/h. The mass spectra (MS) were obtained with a time-of-flight (TOF) analyzer. The exact mass measurements were carried out in triplicate with external calibration. Homolysis constants were measured by EPR on an EMX Bruker spectrometer from 10^−4 M samples in tertbutyl benzene or in a mixture of H2O-nPrOH (1:1; v:v).
Kinetic experiments. Kinetics of A1–A7 (Scheme 2) for series L and D are performed by monitoring the growth of nitroxide by Electron Paramagnetic Resonance (X-band EMX Bruker machine) in tert-butylbenzene and a water/n-PrOH (for a good solubility of the alkoxyamine) as solvents and using O2 as alkyl radical scavenger to suppress the back reaction (kc in Scheme 2) as already reported. Homolysis rate constants kd are given by Equation (1) ([nitroxide]∞ = [alkoxyamine]0 = 0.1 mM, see Table S1) and the subsequent activation energies Ea given by Equation (2). (1) lnnitroxide∞−nitroxidet/nitroxide∞=−kd·t, (2) Ea=−RTlnkd/A.

[2] = test system: Schistosoma mansoni adult worms; experiment: Viability of Schistosoma mansoni adult worms in vitro; type: cell-based, Schistosoma mansoni NMRI strain; settings: 37 °C; for time to kill all parasites / time to reach the death of half of the population of worms: Table S1, dose at 100 μg/ml, unit not given in Table S1 (h in Table 2); for Activity/toxicity towards schistosomes (in words): adult worms; for Activity/toxicity towards schistosomes (in words) / Time to Kill 50% of Parasites / Time to Kill 100% of Parasites: 100 μg/mL; for Time to Kill 50% of Parasites / Time to Kill 100% of Parasites: adult worms in RPMI 1640/Tween 80/DMSO, observed up to 72 h, duplicate wells
Protocol: Experiments on the viability of Schistosoma mansoni adult worms. In vitro tests were performed on Schistosoma mansoni NMRI strains. This parasite is lab maintained on Biomphalaria glabrata (BRE strain) as intermediate mollusc host and Golden Hamster (Janvier Labs, Le Genest-Saint-Isle, France) as definitive vertebrate host. Methods, for molluscs’ and hamsters’ infection and for parasite recovery, were previously described. Adult worms were recovered by hepatic perfusion technique between 42 and 47 days post hamster exposition to parasite larvae. Worms were carefully collected and disposed in 12-well Falcon® plate containing 2 mL of RPMI 1640 (supplemented with L-glutamine and Hepes 25 mM). The plates containing a minimum of 15 worms by well were then placed in an incubator chamber at 37 °C and 5% CO2. The worms sex ratio was almost balanced in each well. The drug was first dissolved in DMSO (Sigma-Aldrich) to give a 100 mg/mL mother solution. Then the stock solution was complemented with Tween 80 and RPMI to obtain the following final ratio dilution: RPMI 1640/Tween 80/DMSO and 1000/0.95/3.8, v/v/v.
All molecules were tested at a final concentration of 100 µg/mL and 10 µg/mL. A negative control consisted in adding the same RPMI 1640/Tween 80/DMSO solution, but without any drug and a positive control consisted in adding praziquantel. All molecules and control were performed in duplicates of well. The worm viability was checked after 1, 2, 3, 4, 5, 6, 7, 8, 24, 48, and 72 h after adding the molecule.

[3] = C–ON bond homolysis in t-BuPh, EPR, T (°C): A1L 128.0, A3L 125.0, A5L 130.0, A6L 125, A7L 126.5, A1D 122.5, A3D 119.8, A5D 130
[4] = C–ON bond homolysis in water/n-PrOH v/v 1:1, EPR, T (°C): A1L 95.1, A3L 94.5, A4L 94.6, A5L 94.0, A6L 94.8, A7L 94.3, A1D 93.5, A3D 92.6, A4D 95.0, A5D 94.6

| Compound | CC50 (Vero cells) [µM] | Homolysis rate constant kd [1, 3] | Homolysis rate constant kd [1, 4] | Activation energy Ea ([1]; in t-BuPh) [kcal/mol] | Activation energy Ea ([1]; in water/n-PrOH v/v 1:1) [kcal/mol] | time to kill all parasites [2] | time to reach the death of half of the population of worms [2] | Activity/toxicity towards schistosomes (in words) [2] | Time to Kill 50% of Parasites [2] [h] | Time to Kill 100% of Parasites [2] [h] |
| --- | --- | --- | --- | --- | --- | --- | --- | --- | --- | --- |
| CC(ON1C(C)(C)CCCC1(C)C)c1ccc(NC(=O)[C@@H](Cc2ccccc2)NC(=O)[C@H](NC(=O)[C@@H](Cc2ccccc2)NC(=O)OC(C)(C)C)C(C)C)cc1 (stereo partly drawn) [A3D, tert-butyl ((2R)-1-(((2R)-3-methyl-1-oxo-1-(((2R)-1-oxo-3-phenyl-1-((4-(1-((2,2,6,6-tetramethylpiperidin-1-yl)oxy)ethyl)phenyl)amino)propan-2-yl)amino)butan-2-yl)amino)-1-oxo-3-phenylpropan-2-yl)carbamate] | > 50 | 9.6 10^−4 s^−1 | 0.45 10^−4 s^−1 | 31.6 | 31.31 | – | – | – | – | – |
| CC(ON1C(C)(C)CCCC1(C)C)c1ccc(NC(=O)[C@@H](Cc2ccccc2)NC(=O)[C@H](NC(=O)[C@H](N)Cc2ccccc2)C(C)C)cc1 (stereo partly drawn) [A4D, (2R)-1-(((2R)-3-methyl-1-oxo-1-(((2R)-1-oxo-3-phenyl-1-((4-(1-((2,2,6,6-tetramethylpiperidin-1-yl)oxy)ethyl)phenyl)amino)propan-2-yl)amino)butan-2-yl)amino)-1-oxo-3-phenylpropan-2-aminium trifluoroacetate] | 2.6 ± 0.3 | – | 1.2 10^−4 s^−1 | – | 30.81 | 7 | 2 | toxic to schistosomes | – | – |
| CC(ON1C(C)(C)CCCC1(C)C)c1ccc(NC(=O)[C@@H](Cc2ccccc2)NC(=O)[C@H](NC(=O)[C@H](N)Cc2ccccc2)C(C)C)cc1 (stereo partly drawn) [A5D, (2R)-2-((R)-2-amino-3-phenylpropanamido)-3-methyl-N-((2R)-1-oxo-3-phenyl-1-((4-(1-((2,2,6,6-tetramethylpiperidin-1-yl)oxy)ethyl)phenyl)amino)propan-2-yl)butanamide] | 2.2 ± 0.3 | 11.6 10^−4 s^−1 | 1.3 10^−4 s^−1 | 31.72 | 30.71 | 4 | 1 | toxic to schistosomes | – | – |
| CC(C)[C@@H](NC(=O)[C@H](N)Cc1ccccc1)C(=O)N[C@H](Cc1ccccc1)C(=O)OCc1ccccc1 [P8D, (R)-1-(((R)-1-(((R)-1-(benzyloxy)-1-oxo-3-phenylpropan-2-yl)amino)-3-methyl-1-oxobutan-2-yl)amino)-1-oxo-3-phenylpropan-2-aminium trifluoroacetate] (H-[dF]-[dV]-[dF]-OBn) | > 50 | – | – | – | – | 1 | 1 | unexpectedly toxic | – | – |
| CC(C)[C@H](NC(=O)[C@@H](N)Cc1ccccc1)C(=O)N[C@@H](Cc1ccccc1)C(=O)OCc1ccccc1 [P8L, (S)-1-(((S)-1-(((S)-1-(benzyloxy)-1-oxo-3-phenylpropan-2-yl)amino)-3-methyl-1-oxobutan-2-yl)amino)-1-oxo-3-phenylpropan-2-aminium trifluoroacetate] (H-Phe-Val-Phe-OBn) | > 50 | – | – | – | – | 24 | 7 | unexpected toxicity | 7 | 24 |
| CC(C)[C@H](NC(=O)[C@H](Cc1ccccc1)NC(=O)CCC(=O)OCc1ccccc1)C(=O)N[C@@H](Cc1ccccc1)C(=O)OCc1ccccc1 [P9L, Benzyl 4-(((S)-1-(((S)-1-(((S)-1-(benzyloxy)-1-oxo-3-phenylpropan-2-yl)amino)-3-methyl-1-oxobutan-2-yl)amino)-1-oxo-3-phenylpropan-2-yl)amino)-4-oxobutanoate] | > 50 | – | – | – | – | 5 | 3 | unexpected toxicity | 3 | 5 |
| CCc1ccc(NC(=O)[C@@H](Cc2ccccc2)NC(=O)[C@H](NC(=O)[C@@H](Cc2ccccc2)NC(=O)OC(C)(C)C)C(C)C)cc1 [P21D, Tert-butyl ((R)-1-(((R)-1-(((R)-1-((4-ethylphenyl)amino)-1-oxo-3-phenylpropan-2-yl)amino)-3-methyl-1-oxobutan-2-yl)amino)-1-oxo-3-phenylpropan-2-yl)carbamate] | > 50 | – | – | – | – | 24 | 5 | unexpectedly toxic | – | – |
| CCc1ccc(NC(=O)[C@@H](Cc2ccccc2)NC(=O)[C@H](NC(=O)[C@H](N)Cc2ccccc2)C(C)C)cc1 [P22D, (R)-1-(((R)-1-(((R)-1-((4-ethylphenyl)amino)-1-oxo-3-phenylpropan-2-yl)amino)-3-methyl-1-oxobutan-2-yl)amino)-1-oxo-3-phenylpropan-2-aminium trifluoroacetate] | 11 | – | – | – | – | 24 | 4 | unexpectedly toxic | – | – |
